Here are results for 2 compounds from paper PMC11831560, “Development of the Pyrido[2,3-d]pyrimidin-7(8H)-one Scaffold toward Potent and Selective NUAK1 Inhibitors” (ACS Medicinal Chemistry Letters, 2025).

Holding throughout (test): Kinase panel radiometric filter binding (33P-ATP)
Common to all, as to type: biochemical
What all share (parameters): % activity remaining: dose or concentration left out as unconfirmed

One assay deals with T1, JAK3 (Homo sapiens, UniProt P52333).
T1 sequence (P52333 1-1124): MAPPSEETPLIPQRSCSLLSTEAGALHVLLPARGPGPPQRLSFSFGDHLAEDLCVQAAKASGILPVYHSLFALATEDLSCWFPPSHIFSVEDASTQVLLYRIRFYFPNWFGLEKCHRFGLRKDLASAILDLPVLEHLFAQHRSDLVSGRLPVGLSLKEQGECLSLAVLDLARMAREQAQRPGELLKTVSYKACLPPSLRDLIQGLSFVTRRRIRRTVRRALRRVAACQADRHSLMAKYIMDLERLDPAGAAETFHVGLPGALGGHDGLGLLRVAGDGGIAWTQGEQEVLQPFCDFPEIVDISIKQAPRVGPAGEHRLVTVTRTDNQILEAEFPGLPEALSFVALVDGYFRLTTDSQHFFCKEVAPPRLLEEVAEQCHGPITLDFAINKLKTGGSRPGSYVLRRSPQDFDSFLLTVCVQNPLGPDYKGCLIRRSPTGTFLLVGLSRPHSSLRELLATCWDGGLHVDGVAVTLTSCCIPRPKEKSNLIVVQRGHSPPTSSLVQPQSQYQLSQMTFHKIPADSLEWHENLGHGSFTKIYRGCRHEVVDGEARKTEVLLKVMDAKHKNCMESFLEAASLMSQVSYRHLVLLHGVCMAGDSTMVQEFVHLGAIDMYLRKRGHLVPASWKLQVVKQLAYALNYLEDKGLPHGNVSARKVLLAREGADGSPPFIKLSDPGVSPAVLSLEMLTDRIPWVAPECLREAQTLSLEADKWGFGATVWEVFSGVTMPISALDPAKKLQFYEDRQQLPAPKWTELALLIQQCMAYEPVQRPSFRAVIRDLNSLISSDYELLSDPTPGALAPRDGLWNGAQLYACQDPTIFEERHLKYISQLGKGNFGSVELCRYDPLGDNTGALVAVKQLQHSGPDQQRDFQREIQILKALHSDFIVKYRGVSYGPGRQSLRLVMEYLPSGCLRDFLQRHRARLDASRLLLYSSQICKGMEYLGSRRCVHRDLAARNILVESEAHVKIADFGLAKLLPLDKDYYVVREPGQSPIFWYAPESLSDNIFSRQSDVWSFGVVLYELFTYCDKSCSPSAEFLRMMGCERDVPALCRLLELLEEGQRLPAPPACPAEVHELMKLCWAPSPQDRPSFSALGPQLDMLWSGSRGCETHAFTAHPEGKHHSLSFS
The conditions noted are these: for % activity remaining: JAK3. The method, then:
(§1) Table S4: AMPKA kinase activity data (ADP-Glo assay)
(§2) Compound pIC50 (Fold selectivity
(§3) Table S5. Kinase selectivity screening for 9 and 24 at 1 µM against a general kinase panel of 140 targets
(§4) in radiometric filter binding assay using 33P-γ−ATP at the MRC PPU International Centre for Kinase
(§5) Profiling, University of Dundee. pIC50 values were determined for compounds with <20% activity
(§6) Kinase activity s.d. pIC50 activity s.d. pIC50

For another assay, the target named is T2, MARK4 (Homo sapiens, UniProt Q96L34).
T2 construct: purchased MRC PPU
T2 sequence (Q96L34 1-752): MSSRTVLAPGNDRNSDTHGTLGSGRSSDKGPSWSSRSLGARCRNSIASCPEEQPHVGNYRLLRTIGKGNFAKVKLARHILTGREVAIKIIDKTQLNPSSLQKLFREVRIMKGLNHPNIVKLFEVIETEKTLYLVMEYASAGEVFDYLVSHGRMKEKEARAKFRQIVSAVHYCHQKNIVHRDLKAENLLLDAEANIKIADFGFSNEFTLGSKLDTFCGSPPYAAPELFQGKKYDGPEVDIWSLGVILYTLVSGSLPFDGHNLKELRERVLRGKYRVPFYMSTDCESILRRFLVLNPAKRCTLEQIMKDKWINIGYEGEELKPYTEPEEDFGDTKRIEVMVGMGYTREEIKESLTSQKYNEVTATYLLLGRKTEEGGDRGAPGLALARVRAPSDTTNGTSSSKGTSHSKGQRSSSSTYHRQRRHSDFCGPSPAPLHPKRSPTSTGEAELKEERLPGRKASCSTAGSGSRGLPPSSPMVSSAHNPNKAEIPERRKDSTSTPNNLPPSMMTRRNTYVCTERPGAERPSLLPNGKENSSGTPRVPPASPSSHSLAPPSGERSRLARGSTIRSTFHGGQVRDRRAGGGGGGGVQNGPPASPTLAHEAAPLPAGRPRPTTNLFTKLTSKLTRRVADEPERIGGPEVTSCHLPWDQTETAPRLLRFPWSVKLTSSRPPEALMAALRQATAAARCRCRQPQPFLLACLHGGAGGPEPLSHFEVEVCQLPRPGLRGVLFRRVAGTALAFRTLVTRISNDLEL
The conditions noted are these: for % activity remaining: MARK4. On the procedure: as §1, §2, §3, §4, §5, §6

The target of another assay is T3, VEG-FR (Homo sapiens, UniProt P17948).
T3 sequence (P17948 784-1338 limits assumed): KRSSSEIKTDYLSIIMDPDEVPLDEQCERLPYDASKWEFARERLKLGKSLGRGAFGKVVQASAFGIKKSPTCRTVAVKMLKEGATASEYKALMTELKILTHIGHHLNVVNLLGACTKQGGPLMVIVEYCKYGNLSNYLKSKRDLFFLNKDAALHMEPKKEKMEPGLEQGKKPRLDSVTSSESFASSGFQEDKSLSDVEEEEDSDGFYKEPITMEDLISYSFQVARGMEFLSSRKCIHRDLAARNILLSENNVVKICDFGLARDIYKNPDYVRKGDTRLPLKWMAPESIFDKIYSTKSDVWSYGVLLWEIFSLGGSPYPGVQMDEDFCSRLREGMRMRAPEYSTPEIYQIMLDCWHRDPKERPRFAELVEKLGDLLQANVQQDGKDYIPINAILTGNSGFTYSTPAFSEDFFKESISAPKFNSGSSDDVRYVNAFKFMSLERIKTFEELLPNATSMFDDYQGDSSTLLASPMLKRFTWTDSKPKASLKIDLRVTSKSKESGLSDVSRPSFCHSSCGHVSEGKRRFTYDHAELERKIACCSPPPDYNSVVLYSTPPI
The settings on record: for % activity remaining: VEG-FR. The method, then:
as §1, §2, §3, §4, §5, §6

As usually defined, the inhibition is the drop in the measured response relative to a control, in per cent. On to `Cc1cc(=O)n(C2CCCC2)c2nc(Nc3ccc(N4CC5CC(C4)N5C)cc3)ncc12` [Compound 9], for which the “% activity remaining” value is reported as 22% on JAK3, 49% on MARK4 and 71% at VEG-FR. Besides, the inhibition at 1 µM at MARK4 (at 1 μM, radiometric filter binding assay, Dundee, read-out: MARK4 single point % inhibition) turned out to be 51%.

Regarding `CN1C2CC1CN(c1ccc(Nc3ncc4ccn(CC5CCOCC5)c4n3)cc1)C2` [Compound 24], the “% activity remaining” value on JAK3 was 7%; at MARK4 it was 95%; at VEG-FR, 17%. In addition, on JAK3 (radiometric filter binding panel), the “JAK3 pIC50” value is given as 7.6. The IC50 on JAK3 (radiometric filter binding panel, read-out: JAK3 pIC50 (converted)) is 23.4 nM; at VEG-FR (radiometric filter binding panel, read-out: VEG-FR pIC50 (converted)), 295 nM.
